The structures appear in SMILES notation. pEC50: −log10 of the molar value. Where a name gives a salt, the structure may show the parent alone. Read-outs that look alike come from different tables or passages of the source.

In the assay the test system is hair cells. Briefly: Hair cell toxicity assay in zebrafish (neomycin-induced hair cell death, DASPEI staining of neuromasts). It is filed as in vivo. The following applies: for Emax at 25 µM: maximum observed @ 25 μM test compound; for pEC50: zebrafish larvae 5-7 dpf, 1 h pre-treatment, then 200 micromolar neomycin + test compound 30 min, read-out: HC50 (concentration that would produce 50% hair cell survival); for Emax at 2.8 µM: maximum observed @ 2.8 μM test compound; for Emax at 8.3 µM: maximum observed @ 8.3 μM test compound. Here is the method:
Zebrafish are bred and newly fertilized embryos are collected the week prior and raised at 28.5° C. in petri dishes containing embryo medium. Newly hatched free-swimming larvae are fed paramecium and dry fish food at 4 days post fertilization (dpf) with lights on. For treatment, fish 5-7 dpf are transferred to cell culture baskets and place within a well of a 6-well plate containing 7 milliliters of 1× embryo medium. Typically, tests are done with ten fish per basket but work well with up to 50 fish. All treatment and wash volumes are 7 milliliters. • 1. Fish are pre-treated with test compound for 1 hour. […] Treat with 200 micromolar neomycin (neomycin sulfate, Sigma, St. Louis, Mo., catalog #N1142)+test compound for 30 minutes. • 3. Rinse fish briefly 4 times in embryo medium and add 700 μl of 0.05% DASPEI (2-{4-(dimethylamino)styryl}-N-ethylpyridinium iodide, Molecular Probes, Eugene, Oreg.) and allowed to stain for 15 minutes. • 4. Rinse twice in embryo medium and add 350 μl MS222 (0.55 ug/ml final concentration, 3-aminobenzoic acid ethyl ester, methansulfoneate salt, Sigma, St. Louis, Mo.) to anesthetize. • 5. View with epifluorescence dissecting microscope equipped with a DAPSEI filter set (excitation […], Chroma Technologies, Brattleboro, Vt.). For assessment of initial dose response curves, fish are transferred to wide depression slide with wide-bore pipette. The DASPEI staining of ten neuromasts (SO1, SO2, IO1, IO2, IO3, IO4, M2, MI1, MI2 and O2) on one side of an animal are evaluated. Each neuromast is scored for presence of DASPEI staining (score=2), reduced DASPEI staining (score=1) or absence of DASPEI staining (score=0). Total scores for an animal are tabulated, to give a composite score that can range from 0 to 20. Average scores and standard deviations are calculated for animals in each treatment group. Scores are normalized to control group (vehicle only, no drug, no neomycin) and expressed as % hair cell survival. HCmax is the maximum protection (hair cell survival) observed. • 6. If at least 50% hair cells survive, the HC50 (concentration that would produce 50% hair cell survival) is calculated as a linear extrapolation from the nearest concentrations of protective drug that produce hair cell survival below and above 50%. If less than 50% hair cells survive, the HC50 is not determined. 1× embryo media (standard lab EM): • 1 mM MgSO4, • 0.15 mM KH2PO4, • 0.05 mM Na2HPO4, • 1 mM CaCl2, • 0.5 mM KCl • 15 mM NaCl • 0.7 mM NaHCO3

The mark [1] stands for this setting: Danio rerio, 200 micromolar neomycin, read-out: Max HC Protection (HCmax, % hair cell survival).

Turning to `NC(=O)c1c(NC(=O)Nc2ccc(Cl)cc2)sc2c1CCN(C1CCNC1)C2` (racemic) [Example 7, (+/−)-2-[3-(4-Chlorophenyl)ureido]-6-(pyrrolidin-3-yl)-4,5,6,7-tetrahydrothieno[2,3-c]pyridine-3-carboxamide dihydrochloride], the Emax at 25 µM under setting [1] was found to be 78%. For the setting “Danio rerio”, the pEC50 is 5.00 to 6.00.

Take `CN1CCC(N2CCc3c(sc(NC(=O)Nc4ccc(Cl)cc4)c3C(N)=O)C2)C1` (racemic) [Example 9, (+/−)-2-[3-(4-Chlorophenyl)ureido]-6-(1-methylpyrrolidin-3-yl)-4,5,6,7-tetrahydrothieno[2,3-c]pyridine-3-carboxamide dihydrochloride]: the Emax at 25 µM under setting [1] was 82%. The pEC50 (Danio rerio) is 5.00 to 6.00.

With `CC(C1CCC1)N1CCc2c(sc(NC(=O)Nc3ccc(Cl)cc3)c2C(N)=O)C1` (racemic) [Example 47, (+/−)-2-[3-(4-chlorophenyl)ureido]-6-(1-cyclobutylethyl)-4,5,6,7-tetrahydrothieno[2,3-c]pyridine-3-carboxamide hydrochloride], the Emax at 2.8 µM under setting [1] was found to be 73%. For the setting “Danio rerio”, the pEC50 is greater than 6.00.

Consider `CC(C)C(C)N1CCc2c(sc(NC(=O)Nc3ccc(Cl)cc3)c2C(N)=O)C1` (racemic) [Example 48, (+/−)-2-[3-(4-Chlorophenyl)ureido]-6-(3-methylbutan-2-yl)-4,5,6,7-tetrahydrothieno[2,3-c]pyridine-3-carboxamide hydrochloride], for which the Emax at 25 µM under setting [1] was found to be 72%. Further, the pEC50 (Danio rerio) was 5.00 to 6.00.

Take `CC(C(=O)OC(C)(C)C)N1CCc2c(sc(NC(=O)Nc3ccc(Cl)cc3)c2C(N)=O)C1` (racemic) [Example 59, (+/−)-tert-Butyl 2-{3-carbamoyl-2-[3-(4-chlorophenyl)ureido]-4,5-dihydrothieno[2,3-c]pyridin-6(7H)-yl}propanoate]: the Emax at 8.3 µM under setting [1] was found to be 40%.

Regarding `CC(C(=O)O)N1CCc2c(sc(NC(=O)Nc3ccc(Cl)cc3)c2C(N)=O)C1` (racemic) [Example 62, (+/−)-2-{3-Carbamoyl-2-[3-(4-chlorophenyl)ureido]-4,5-dihydrothieno[2,3-c]pyridin-6(7H)-yl}propanoic acid hydrochloride], under setting [1], the Emax at 25 µM was determined as 29%.

As for `CN1CCCC12CCc1c(sc(NC(=O)Nc3ccc(Cl)cc3)c1C(N)=O)C2` (racemic) [Example 111, (+/−)-2-[3-(4-chlorophenyl)ureido]-1′-methyl-5,7-dihydro-4H-spiro(benzo[b]thiophene-6,2′-pyrrolidine)-3-carboxamide hydrochloride], under setting [1], the Emax at 2.8 µM is 55%. Moreover, the pEC50 (Danio rerio) is 5.00 to 6.00.

`NC(=O)c1c(NC(=O)Nc2ccc(Cl)cc2)sc2c1CC1CCCCN1C2` (racemic) [Example 117, (+/−)-2-[3-(4-chlorophenyl)ureido]-4a,5,6,7,8,10-hexahydro-4H-thieno[3,2-b]quinolizine-3-carboxamide hydrochloride]: the Emax at 25 µM under setting [1] was 78%. Besides, the pEC50 (Danio rerio) was 5.00 to 6.00.

In the case of `NC(=O)c1c(NC(=O)Nc2ccc(Cl)cc2)sc2c1CCN1CCCCC21` (racemic) [Example 118, (+/−)-2-[3-(4-Chlorophenyl)ureido]-5,7,8,9,10,10a-hexahydro-4H-thieno[2,3-a]quinolizine-3-carboxamide hydrochloride], the Emax at 25 µM under setting [1] is 99%. Also, under “Danio rerio”, the pEC50 was 5.00 to 6.00.

With `NC(=O)c1c(NC(=O)Nc2ccc(Cl)cc2)sc2c1CC1CCC2N1` (racemic) [Example 122, (+/−)-2-[3-(4-chlorophenyl)ureido]-5,6,7,8-tetrahydro-4H-5,8-epiminocyclohepta[b]thiophene-3-carboxamide hydrochloride], the Emax at 25 µM under setting [1] came out at 91%. The pEC50 (Danio rerio) was greater than 6.00.

Take `CC12CCC(C)(N1)c1sc(NC(=O)Nc3ccc(Cl)cc3)c(C(N)=O)c1C2` (racemic) [Example 123, (+/−)-2-[3-(4-Chlorophenyl)ureido]-5,8-dimethyl-5,6,7,8-tetrahydro-4H-5,8-epiminocyclohepta[b]thiophene-3-carboxamide trifluoroacetate]: the Emax at 2.8 µM under setting [1] was determined as 60%. For the same compound, the pEC50 (Danio rerio) was greater than 6.00.

As to `NC(=O)c1c(NC(=O)Nc2ccc(Cl)cc2)sc2c1CC1CCC2N1` (racemic) [Example 124, (+/−)-2-[3-(4-chlorophenyl)ureido]-5,6,7,8-tetrahydro-4H-5,8-epiminocyclohepta[b]thiophene-3-carboxamide hydrochloride], the pEC50 is greater than 6.00.

Consider `CN1C2CCC1c1sc(NC(=O)Nc3ccc(Cl)cc3)c(C(N)=O)c1C2` (racemic) [Example 125, (+/−)-2-[3-(4-chlorophenyl)ureido)-9-methyl-5,6,7,8-tetrahydro-4H-5,8-epiminocyclohepta[b]thiophene-3-carboxamide hydrochloride], for which the Emax at 8.3 µM under setting [1] is 99%. In addition, under “Danio rerio”, the pEC50 was greater than 6.00.

Regarding `CN1C2CCC1c1sc(NC(=O)Nc3ccc(C(=O)c4ccccc4)cc3)c(C(N)=O)c1C2` (racemic) [Example 126, (+/−)-2-[3-(4-Benzoylphenyl)ureido]-9-methyl-5,6,7,8-tetrahydro-4H-5,8-epiminocyclohepta[b]thiophene-3-carboxamide hydrochloride], the Emax at 2.8 µM under setting [1] came out at 41%.

With `NC(=O)c1c(NC(=O)Nc2ccc(Cl)cc2)sc2c1CC1CCC2N1CC1CCCCC1` (racemic) [Example 131, (+/−)-2-[3-(4-chlorophenyl)ureido]-9-(cyclohexylmethyl)-5,6,7,8-tetrahydro-4H-5,8-epiminocyclohepta[b]thiophene-3-carboxamide hydrochloride], under setting [1], the Emax at 2.8 µM was found to be 88%. Under “Danio rerio”, the pEC50 is greater than 6.00.

`NC(=O)c1c(NC(=O)Nc2ccc(Cl)cc2)sc2c1CC1CCC2N1CC1CCC1` (racemic) [Example 132, (+/−)-2-[3-(4-Chlorophenyl)ureido]-9-(cyclobutylmethyl)-5,6,7,8-tetrahydro-4H-5,8-epiminocyclohepta[b]thiophene-3-carboxamide hydrochloride]: under setting [1], the Emax at 2.8 µM was 97%. Besides, the pEC50 (Danio rerio) was greater than 6.00.

Regarding `CCN1C2CCC1c1sc(NC(=O)Nc3ccc(Cl)cc3)c(C(N)=O)c1C2` (racemic) [Example 133, (+/−)-2-[3-(4-Chlorophenyl)ureido]-9-ethyl-5,6,7,8-tetrahydro-4H-5,8-epiminocyclohepta[b]thiophene-3-carboxamide hydrochloride], the Emax at 25 µM under setting [1] was 76%. Also, where the note is “Danio rerio”, the pEC50 was greater than 6.00.

Consider `COC(=O)C(C)(C)CN1C2CCC1c1sc(NC(=O)Nc3ccc(Cl)cc3)c(C(N)=O)c1C2` (racemic) [Example 134, (+/−)-Methyl 3-{3-carbamoyl-2-[3-(4-chlorophenyl)ureido]-5,6,7,8-tetrahydro-4H-5,8-epiminocyclohepta[b]thiophen-9-yl}-2,2-dimethylpropanoate hydrochloride], for which the Emax at 0.9 µM (Danio rerio, maximum observed @ 0.9 μM test compound, 200 micromolar neomycin, read-out: Max HC Protection (HCmax, % hair cell survival)) was 11%.

Consider `C[N+]12CCCCC1Cc1c(sc(NC(=O)Nc3ccc(Cl)cc3)c1C(N)=O)C2` (racemic) [Example 177, (+/−)-3-Carbamoyl-2-[3-(4-chlorophenyl)ureido]-9-methyl-4,4a,5,6,7,8,9,10-octahydrothieno[3,2-b]quinolizin-9-ium iodide], for which the Emax at 25 µM under setting [1] was determined as 97%. Also, the pEC50 (Danio rerio) is 5.00 to 6.00.

For the origin of these results see US9416141B2 (University of Washington through its Center for …, priority 2012, dated 2016).
